# Patent publication US9463338B2, “Derivatives of the sinapinic acid” (PHARMASYNTHESE, priority 2013, dated 2016)
# Several values for one entry are separate records, joined by “and”; a condition that tells them apart may be missing. Equal values may be shown once. Marks after values point to notes of the source that are not given here.
# Experiments:
# [1] = tested on: explants of adipose tissues; experiment: Slimming effect: glycerol released in culture medium of adipose tissue explants; type: cell-based, human
# Protocol: The activity of the compounds of the invention on the adipocytes has been assessed. To do so, tests have been carried out on explants of adipose tissues that are kept alive according to the following experimental protocol. The products to be tested are introduced in the culture medium. After 9 days of treatment, the activity is assessed through an assay of the glycerol released in the culture medium. In order to be able to compare the potential activity of the molecules, caffeine (Sigma ref C-0750 batch 127F0396), which is known for its activity on the adipocytes (Studlar M. […] The explants are prepared from a tummy tuck ([…]-AB-40) carried out on a donor. 54 explants of tissues have been prepared and kept alive in a medium which is supplemented with penicillin/streptomycin antibiotics (Gibco ref 15140 batch 918578) at 37° C. and with 5% of CO2. The treatment has been carried out, on 3 explants, by incorporating 100 μl of the product (which is in turn at a 2% concentration in the adequate solvent, DMSO) in 2 ml of the culture medium on days J0, J2, J3, J5 and J7. Caffeine has been diluted to the desired concentration in the culture medium on these same days. The control explants have undergone no treatment. On J0, the 3 explants have been collected and frozen at -80° C. On J9, the remaining explants have been collected and preserved under the same conditions. The extraction of lipids from the culture medium has been carried out according to a tested procedure. The assay of the glycerol of the culture medium has been carried out using a glycerol assay kit (Megazyme, K-GROL) in the form of 96-well microplates and reading has been made at 340 nm with a Tecam Infinite M200 microplate reader associated to the Magellan software.
# [2] = tested on: normal human dermal fibroblasts; experiment: Production of progerin in monolayer cultures of normal human dermal fibroblasts (ELISA); type: cell-based; conditions: for Progerin % DMSO / Progerin Average / Progerin, individual values / Progerin Difference (%): 96 hours; for Progerin Difference (%): vs DMSO; for neo synthesis of progerin: under the retained experimental conditions
# Source text: In order to study the influence of the compounds of the invention on the concentration of progerin in the cells, the assay method described by C. Verdy, J.-E. Branka and N. Mekideche in <<Quantitative assessment of lactate and progerine production in normal human cutaneous cells during normal ageing: effect of an alaria esculenta extract>>, Int. J. Cosmetic Science, 2011, 1-5, has been used.
# (§1) The test system consists of monolayers of adult normal human dermal fibroblasts obtained by cultivating cells collected from a tummy tuck carried out on a person.
# Insulin at 10 nM has been used as a reference product in this study. […]
# (§2) The compound to be tested is solubilized in 1 mg/ml in DMSO, then diluted in the cells incubation medium, with a constant concentration of 0.1% (v/v) in DMSO.
# Upon completion of the incubation period, on the one hand, the progerin has been quantified in the cellular lysates (obtained by ultrasonic action) through a sensitive and specific ELISA assay, and on the other hand, the proteins that are contained in the cellular lysates have been quantified by a spectrophotometric method (Bradford method—Bradford M. (1976) Anal. Biochem., 72, 248-254).
# (§3) The statistical significance of the differences that have been observed between the <<Control>> and the <<reference product>> conditions, has been assessed through a Student test. The statistical significance of the differences that have been observed between the <<Check>> and the <<test products>> conditions, has been assessed through a one-way analysis of variance (One Way ANOVA) followed by a Holm-Sidak test (*:p<0.05).
# [3] = tested on: normal human dermal fibroblasts; experiment: Production of type I pro-collagen in monolayer cultures of normal human dermal fibroblasts (E.I.A.); type: cell-based; conditions: 48 hours; for Procollagen Difference (%): vs DMSO
# Protocol: as §1
# The used reference activator is the Transforming Growth Factor β (TGF-β) at 1 ng/ml. […]
# as §2
# Upon completion of the incubation period, the type I pro-collagen contained in the fibroblasts incubation media has been quantified using a sensitive and specific E.I.A. kit.
# Upon completion of the incubation period, the proteins contained in the cellular lysates have been quantified by a spectrophotometric method (Bradford method—Bradford M. (1976) Anal. Biochem., 72, 248-254).
# as §3
# The results are given in the form of μg of type I pro-collagen per mg of protein (average+/− the standard deviation, S.D.) and are reported in the following Table 5.
# normal human melanocytes = experiment: Melanin production of normal human melanocytes (conditioned fibroblast media); type: cell-based; conditions: 250 μM, melanocytes 72 hours
# Source text: These experiments allowed to show the capability of the compounds of the invention to modulate the melanin production of normal human melanocytes cultivated in D.K.K. fibroblast monolayers.
# Monolayers of normal human dermal fibroblasts have been obtained by cultivating cells collected from a tummy tuck carried out on a person. For carrying out the tests, these cells have been cultivated until obtaining confluent monolayers. Monolayers of normal human melanocytes have been obtained by cultivating cells collected from a tummy tuck carried out on a person. For carrying out the tests, these cells have been cultivated until obtaining non-confluent monolayers. […]
# Afterwards, the melanocytes have been incubated for 72 hours at 37° C. in a humid atmosphere with 5% of CO2, in the absence (culture medium alone) or in the presence of kojic acid at 250 μM or of conditioned fibroblast media (see above) diluted to 1/10th in the culture medium of the melanocytes.
# The active ingredient has been solubilized in DMSO (Dimethyl Sulfoxide). Afterwards, the dilutions have been carried out in the cells incubation medium with a constant concentration of 0.01% (v/v) of DMSO.
# Upon completion of the incubation period, the intracellular melanin content has been quantified in the melanocytic lysates by a spectrophotometric measurement at 405 nm.
# Upon completion of the incubation period, the proteins contained in the cellular lysates have been quantified by a spectrophotometric method (Bradford method).
# The results are given in the form of μg of intracellular melanin per mg of total proteins of the cellular layer (averages+/− the standard deviation, S.D.).
# The statistical significance of the differences observed between the <<Control>> and the <<test product>> conditions, has been assessed through a one-way analysis of variance (One Way ANOVA) followed by a Holm-Sidak test (*:p<0.05).
smiles,measurement,setting,value
"Cn1c(=O)c2c(ncn2C)n(C)c1=O [Caffeine, caffeine, reference compound]",Glycerol % in comparison with caffeine,[1]; after 9 days of treatment,100%
same,Glycerol Average,"[1]; glycerol released in culture medium after 9 days, 100 μl of 2% product in DMSO in 2 ml medium on J0, J2, J3, J5, J7, 3 explants",0.096 mg/mL
COc1cc(/C=C/C(=O)Oc2ccc(CCO)cc2)cc(OC)c1OC(C)=O [Compound 2],Progerin % DMSO,[2]; 10 ng/ml,25.8%
same,Progerin Average,[2]; 10 ng/ml,286.9* ng/mg of protein
same,"Progerin, individual values",[2]; 10 ng/ml,233.7 ng/mg of protein and 353.5 ng/mg of protein and 273.6 ng/mg of protein
same,Progerin Difference (%),[2]; 10 ng/ml,−74.2%
same,Progerin % DMSO,[2]; 100 ng/ml,23.1%
same,Progerin Average,[2]; 100 ng/ml,256.4* ng/mg of protein
same,"Progerin, individual values",[2]; 100 ng/ml,170.6 ng/mg of protein and 196.3 ng/mg of protein and 402.4 ng/mg of protein
same,Progerin Difference (%),[2]; 100 ng/ml,−76.9%
same,Progerin % DMSO,[2]; 500 ng/ml,26.4%
same,Progerin Average,[2]; 500 ng/ml,293* ng/mg of protein
same,"Progerin, individual values",[2]; 500 ng/ml,300.1 ng/mg of protein and 328.4 ng/mg of protein and 250.5 ng/mg of protein
same,Progerin Difference (%),[2]; 500 ng/ml,−73.6%
same,neo synthesis of progerin,[2],significantly decrease
COc1cc(/C=C/C(=O)Oc2coc(CO)cc2=O)cc(OC)c1OC(C)=O [Compound 10],Progerin % DMSO,[2]; 50 ng/ml,23.8%
same,Progerin Average,[2]; 50 ng/ml,264.1* ng/mg of protein
same,"Progerin, individual values",[2]; 50 ng/ml,274.9 ng/mg of protein and 225.1 ng/mg of protein and 292.3 ng/mg of protein
same,Progerin Difference (%),[2]; 50 ng/ml,−76.2%
same,Progerin % DMSO,[2]; 500 ng/ml,26.1%
same,Progerin Average,[2]; 500 ng/ml,289.6* ng/mg of protein
same,"Progerin, individual values",[2]; 500 ng/ml,301.7 ng/mg of protein and 296.1 ng/mg of protein and 271.0 ng/mg of protein
same,Progerin Difference (%),[2]; 500 ng/ml,−73.9%
same,Progerin % DMSO,[2]; 5000 ng/ml,26.2%
same,Progerin Average,[2]; 5000 ng/ml,291.4* ng/mg of protein
same,"Progerin, individual values",[2]; 5000 ng/ml,261.2 ng/mg of protein and 245.9 ng/mg of protein and 366.9 ng/mg of protein
same,Progerin Difference (%),[2]; 5000 ng/ml,−73.8%
same,neo synthesis of progerin,[2],significantly decrease
same,Procollagen % DMSO,[3]; 10 ng/ml,104.6%
same,Procollagen Average,[3]; 10 ng/ml,54.9 pg/mg of protein
same,"Procollagen, individual values",[3]; 10 ng/ml,45.6 pg/mg of protein and 48.7 pg/mg of protein and 70.3 pg/mg of protein
same,Procollagen Difference (%),[3]; 10 ng/ml,4.6%
same,Procollagen % DMSO,[3]; 100 ng/ml,150.2%
same,Procollagen Average,[3]; 100 ng/ml,78.8* pg/mg of protein
same,"Procollagen, individual values",[3]; 100 ng/ml,74.0 pg/mg of protein and 75.9 pg/mg of protein and 86.4 pg/mg of protein
same,Procollagen Difference (%),[3]; 100 ng/ml,50.2%
same,Procollagen % DMSO,[3]; 500 ng/ml,175.3%
same,Procollagen Average,[3]; 500 ng/ml,91.9* pg/mg of protein
same,"Procollagen, individual values",[3]; 500 ng/ml,90.6 pg/mg of protein and 95.4 pg/mg of protein and 89.8 pg/mg of protein
same,Procollagen Difference (%),[3]; 500 ng/ml,75.3%
"O=c1cc(CO)occ1O [Kojic acid, kojic acid, reference compound]",Melanin/Proteins % control,normal human melanocytes,86.6* %
same,Melanin/Proteins Average,normal human melanocytes,14.0 µg/mg
same,"Melanin/Proteins, individual values",normal human melanocytes,14.3 µg/mg and 13.4 µg/mg and 14.1 µg/mg
